In US20250145585A1, “HETEROCYCLIC INHIBITORS OF IGF-1R FOR TREATMENT OF DISEASE” (HORIZON THERAPEUTICS IRELAND DAC, priority 2023, published 2025):

Target: T1, IGF-1R (Homo sapiens, UniProt P08069)
T1 construct: expressed in transfected cells
Assay: Example B-2: IGF-1R Assay (PathHunter cell lines, EC80 agonist challenge, chemiluminescent detection)
Type: cell-based
Conditions: PathHunter cells, compound 60 minutes at 37° C., EC80 agonist 3 hours; read-out: IC50, Biological Activity against IGF-1R (Table B2)
How it was run: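 PathHunter cells were pre-incubated with compound for 60 min at 37° C (1% vehicle), then challenged with EC80 agonist for 3 h at room temperature. Chemiluminescent detection after 1 h gave % inhibition relative to EC80 and vehicle controls, from which IC50 was derived.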

T1 sequence (P08069 31-1367): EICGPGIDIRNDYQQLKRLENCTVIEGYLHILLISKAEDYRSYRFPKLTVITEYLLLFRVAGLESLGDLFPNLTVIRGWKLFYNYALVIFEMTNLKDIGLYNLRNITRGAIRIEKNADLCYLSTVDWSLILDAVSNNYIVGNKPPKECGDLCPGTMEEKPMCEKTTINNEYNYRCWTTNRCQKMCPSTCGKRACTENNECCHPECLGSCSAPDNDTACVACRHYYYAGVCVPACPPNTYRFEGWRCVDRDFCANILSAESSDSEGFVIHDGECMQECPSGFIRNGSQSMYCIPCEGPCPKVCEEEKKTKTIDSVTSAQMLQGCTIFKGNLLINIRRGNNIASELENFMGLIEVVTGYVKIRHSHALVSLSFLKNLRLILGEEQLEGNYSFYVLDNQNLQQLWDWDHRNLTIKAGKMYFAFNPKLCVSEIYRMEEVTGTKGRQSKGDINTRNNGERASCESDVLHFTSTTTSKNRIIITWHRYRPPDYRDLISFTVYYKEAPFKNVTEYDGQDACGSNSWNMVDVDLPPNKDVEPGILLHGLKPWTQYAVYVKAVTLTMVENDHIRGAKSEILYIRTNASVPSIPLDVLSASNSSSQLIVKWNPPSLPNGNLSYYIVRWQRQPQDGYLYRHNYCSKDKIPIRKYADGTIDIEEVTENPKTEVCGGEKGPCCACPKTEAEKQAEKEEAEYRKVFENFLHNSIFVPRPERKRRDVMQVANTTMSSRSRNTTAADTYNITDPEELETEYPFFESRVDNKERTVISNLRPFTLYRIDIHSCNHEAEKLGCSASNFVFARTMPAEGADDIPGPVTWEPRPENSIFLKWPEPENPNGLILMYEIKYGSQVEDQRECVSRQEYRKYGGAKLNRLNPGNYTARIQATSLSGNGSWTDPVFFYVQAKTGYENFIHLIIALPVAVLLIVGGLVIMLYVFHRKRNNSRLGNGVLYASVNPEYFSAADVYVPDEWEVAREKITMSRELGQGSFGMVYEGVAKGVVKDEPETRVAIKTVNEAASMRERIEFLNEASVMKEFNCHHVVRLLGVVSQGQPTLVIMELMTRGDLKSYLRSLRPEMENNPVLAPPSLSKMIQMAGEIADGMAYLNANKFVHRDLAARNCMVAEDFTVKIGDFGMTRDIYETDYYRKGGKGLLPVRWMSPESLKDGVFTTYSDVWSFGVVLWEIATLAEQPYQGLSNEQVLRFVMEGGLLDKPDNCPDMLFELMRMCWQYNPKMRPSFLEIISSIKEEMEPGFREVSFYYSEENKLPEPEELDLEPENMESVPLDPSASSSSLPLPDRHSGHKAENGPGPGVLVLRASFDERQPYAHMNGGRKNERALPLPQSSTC

Structure (SMILES)	IC50
CC1(C)C(=O)N(c2ccc(S(=O)(=O)C(F)(F)F)cc2)C(=O)N1Cc1ccnc(N[C@@H]2[C@@H]3COC[C@@H]32)c1 [Compound 335, 1-((2-(((1R,5S,6s)-3-oxabicyclo[3.1.0]hexan-6-yl)amino)pyridin-4-yl)methyl)-5,5-dimethyl-3-(4-((trifluoromethyl)sulfonyl)phenyl) imidazolidine-2,4-dione]	500 to 2000 nM
CC1(C)C(=O)N(c2ccc(OC(F)(F)F)c(F)c2)C(=O)N1Cc1ccnc2c1CC(=O)N2 [Compound 286, 3-(3-fluoro-4-(trifluoromethoxy)phenyl)-5,5-dimethyl-1-((2-oxo-2,3-dihydro-1H-pyrrolo[2,3-b]pyridin-4-yl)methyl)imidazolidine-2,4-dione]	2000 to 10000 nM
CC(C)(C#N)c1ccc(N2C(=O)N(Cc3ccnc(N[C@H]4CCOC4)c3)C(C)(C)C2=O)cc1 [Compound 152, (S)-2-(4-(4,4-dimethyl-2,5-dioxo-3-((2-((tetrahydrofuran-3-yl)amino)pyridin-4-yl)methyl)imidazolidin-1-yl)phenyl)-2-methylpropanenitrile]	500 to 2000 nM
CC1(C)C(=O)N(c2ccc(S(=O)(=O)C(F)F)cc2)C(=O)N1Cc1ccnc2c1CC(=O)N2 [Compound 63, 3-(4-((difluoromethyl)sulfonyl)phenyl)-5,5-dimethyl-1-((2-oxo-2,3-dihydro-1H-pyrrolo[2,3-b]pyridin-4-yl)methyl)imidazolidine-2,4-dione]	500 to 2000 nM
CC1(C)C(=O)N(c2ccc(OC(F)(F)F)c(C#N)c2)C(=O)N1Cc1ccnc2c1CC(=O)N2 [Compound 288, 5-(4,4-dimethyl-2,5-dioxo-3-((2-oxo-2,3-dihydro-1H-pyrrolo[2,3-b]pyridin-4-yl)methyl)imidazolidin-1-yl)-2-(trifluoromethoxy)benzonitrile]	> 10000 nM
COCCOC[C@@H](C)Nc1cc(CN2C(=O)N(c3ccc4c(c3)N(S(C)(=O)=O)CC4(C)C)C(=O)C2(C)C)ccn1 [Compound 224, (R)-3-(3,3-dimethyl-1-(methylsulfonyl)indolin-6-yl)-1-((2-((1-(2-methoxyethoxy)propan-2-yl)amino)pyridin-4-yl)methyl)-5,5-dimethylimidazolidine-2,4-dione]	≤ 500 nM
CC1(C)C(=O)N(c2ccc(S(=O)(=O)C(F)(F)F)cc2)C(=O)N1Cc1ccnc(NC2CS(=O)(=O)C2)c1 [Compound 327, 1-((2-((1,1-dioxidothietan-3-yl)amino)pyridin-4-yl)methyl)-5,5-dimethyl-3-(4-((trifluoromethyl)sulfonyl)phenyl) imidazolidine-2,4-dione]	2000 to 10000 nM
CC1(C)C(=O)N(c2ccc(C3(C(F)(F)F)CC3)cc2)C(=O)N1Cc1ccnc(NCc2ncc[nH]2)c1 [Compound 173, 1-((2-(((1H-imidazol-2-yl)methyl)amino)pyridin-4-yl)methyl)-5,5-dimethyl-3-(4-(1-(trifluoromethyl)cyclopropyl)phenyl) imidazolidine-2,4-dione]	≤ 500 nM
CC1(C)C(=O)N(c2ccc3c(c2)N(C(=O)C2CC2)CC32CCC2)C(=O)N1Cc1ccnc(NC2C3COCC32)c1 (stereo not drawn) [Compound 234, 1-((2-((3-oxabicyclo[3.1.0]hexan-6-yl)amino)pyridin-4-yl)methyl)-3-(1′-(cyclopropanecarbonyl)spiro [cyclobutane-1,3′-indolin]-6′-yl)-5,5-dimethylimidazolidine-2,4-dione]	≤ 500 nM
CC(C)Nc1cc(CN2C(=O)N(c3ccc4c(c3)N(S(C)(=O)=O)CC43CC3)C(=O)C2(C)C)ccn1 [Compound 200, 1-((2-(isopropylamino)pyridin-4-yl)methyl)-5,5-dimethyl-3-(1′-(methylsulfonyl)spiro[cyclopropane-1,3′-indolin]-6′-yl)imidazolidine-2,4-dione]	≤ 500 nM
CCOC[C@H](C)Nc1cc(CN2C(=O)N(c3ccc(C4(C(F)(F)F)CC4)cc3)C(=O)C2(C)C)ccn1 [Compound 157, (S)-1-((2-((1-ethoxypropan-2-yl)amino)pyridin-4-yl)methyl)-5,5-dimethyl-3-(4-(1-(trifluoromethyl)cyclopropyl)phenyl) imidazolidine-2,4-dione]	≤ 500 nM
CC1(C)C(=O)N(c2ccc(C3(C(F)(F)F)CC3)cc2)C(=O)N1Cc1ccnc(NCc2ncccn2)c1 [Compound 177, 5,5-dimethyl-1-((2-((pyrimidin-2-ylmethyl)amino)pyridin-4-yl)methyl)-3-(4-(1-(trifluoromethyl)cyclopropyl)phenyl) imidazolidine-2,4-dione]	≤ 500 nM
CC1(C)C(=O)N(c2ccc(C3(C(F)(F)F)CC3)cc2)C(=O)N1Cc1ccnc(NC2CS(=O)(=O)C2)c1 [Compound 141, 1-((2-((1,1-dioxidothietan-3-yl)amino)pyridin-4-yl)methyl)-5,5-dimethyl-3-(4-(1-(trifluoromethyl)cyclopropyl)phenyl) imidazolidine-2,4-dione]	500 to 2000 nM
CC1(C)C(=O)N(c2cc3c(cc2Br)C2(CCC2)CO3)C(=O)N1Cc1ccnc2c1CC(=O)N2 [Compound 52, 3-(5-bromo-2H-spiro[benzofuran-3,1′-cyclobutan]-6-yl)-5,5-dimethyl-1-((2-oxo-2,3-dihydro-1H-pyrrolo[2,3-b]pyridin-4-yl)methyl)imidazolidine-2,4-dione]	≤ 500 nM
CC1(Nc2cc(CN3C(=O)N(c4ccc(S(=O)(=O)C(F)(F)F)cc4)C(=O)C3(C)C)ccn2)CC1 [Compound 355, 5,5-dimethyl-1-((2-((1-methylcyclopropyl)amino)pyridin-4-yl)methyl)-3-(4-((trifluoromethyl)sulfonyl)phenyl)imidazolidine-2,4-dione]	≤ 500 nM
CN1CC(Nc2cc(CN3C(=O)N(c4ccc(S(=O)(=O)C(F)(F)F)cc4)C(=O)C3(C)C)ccn2)CCC1=O (stereo not drawn) [Compound 330, 5,5-dimethyl-1-((2-((1-methyl-6-oxopiperidin-3-yl)amino)pyridin-4-yl)methyl)-3-(4-((trifluoromethyl)sulfonyl)phenyl) imidazolidine-2,4-dione]	500 to 2000 nM
Cn1nc(C(C)(C)C)cc1N1C(=O)N(Cc2ccnc(NC3CCOCC3)c2)C(C)(C)C1=O [Compound 260, 3-(3-(tert-butyl)-1-methyl-1H-pyrazol-5-yl)-5,5-dimethyl-1-((2-((tetrahydro-2H-pyran-4-yl)amino)pyridin-4-yl)methyl)imidazolidine-2,4-dione]	2000 to 10000 nM

Second part, the compound after the results:

IC50	Structure (SMILES)
≤ 500 nM	CC1(C)C(=O)N(c2ccc(S(=O)(=O)C(F)(F)F)cc2)C(=O)N1Cc1ccnc(NC2CC2)c1 [Compound 356, 1-((2-(cyclopropylamino)pyridin-4-yl)methyl)-5,5-dimethyl-3-(4-((trifluoromethyl)sulfonyl)phenyl)imidazolidine-2,4-dione]
≤ 500 nM	CC1(C)C(=O)N(c2ccc3c(c2)N(S(C)(=O)=O)CC32CCC2)C(=O)N1Cc1ccnc2c1CC(=O)N2 [Compound 43, 5,5-dimethyl-3-(1′-(methylsulfonyl)spiro[cyclobutane-1,3′-indolin]-6′-yl)-1-((2-oxo-2,3-dihydro-1H-pyrrolo[2,3-b]pyridin-4-yl)methyl)imidazolidine-2,4-dione]
≤ 500 nM	COC[C@@H](C)Nc1cc(CN2C(=O)N(c3ccc4c(c3)N(S(C)(=O)=O)CC4(C)C)C(=O)C2(C)C)ccn1 [Compound 203, (R)-3-(3,3-dimethyl-1-(methylsulfonyl)indolin-6-yl)-1-((2-((1-methoxypropan-2-yl)amino)pyridin-4-yl)methyl)-5,5-dimethylimidazolidine-2,4-dione]
≤ 500 nM	CC1(C)C(=O)N(c2ccc(C3(C(F)(F)F)CC3)cc2)C(=O)N1Cc1ccnc(NCc2ccncn2)c1 [Compound 181, 5,5-dimethyl-1-((2-((pyrimidin-4-ylmethyl)amino)pyridin-4-yl)methyl)-3-(4-(1-(trifluoromethyl)cyclopropyl)phenyl) imidazolidine-2,4-dione]
≤ 500 nM	CC1(C)C(=O)N(c2ccc(C3(C(F)(F)F)CC3)cc2)C(=O)N1Cc1ccnc(NCc2cnccn2)c1 [Compound 182, 5,5-dimethyl-1-((2-((pyrazin-2-ylmethyl)amino)pyridin-4-yl)methyl)-3-(4-(1-(trifluoromethyl)cyclopropyl)phenyl) imidazolidine-2,4-dione]
≤ 500 nM	CC1(C)CN(C(=O)C2CC2)c2cc(N3C(=O)N(Cc4ccnc(N[C@H]5CCOC5)c4)C(C)(C)C3=O)ccc21 [Compound 196, (S)-3-(1-(cyclopropanecarbonyl)-3,3-dimethylindolin-6-yl)-5,5-dimethyl-1-((2-((tetrahydrofuran-3-yl)amino)pyridin-4-yl)methyl)imidazolidine-2,4-dione]
≤ 500 nM	COCCC(C)Nc1cc(CN2C(=O)N(c3ccc(C(C)(C)C#N)cc3)C(=O)C2(C)C)ccn1 (stereo not drawn) [Compound 156, 2-(4-(3-((2-((4-methoxybutan-2-yl)amino)pyridin-4-yl)methyl)-4,4-dimethyl-2,5-dioxoimidazolidin-1-yl)phenyl)-2-methylpropanenitrile]
≤ 500 nM	CC1(C)C(=O)N(c2ccc3c(c2)N(S(C)(=O)=O)CC32CC2)C(=O)N1Cc1ccnc(N[C@H]2[C@@H]3COC[C@@H]32)c1 [Compound 222, 1-((2-(((1R,5S,6r)-3-oxabicyclo[3.1.0]hexan-6-yl)amino)pyridin-4-yl)methyl)-5,5-dimethyl-3-(1′-(methylsulfonyl)spiro[cyclopropane-1,3′-indolin]-6′-yl)imidazolidine-2,4-dione]
≤ 500 nM	CC1(C)C(=O)N(c2ccc3c(c2)N(S(C)(=O)=O)CC32CCC2)C(=O)N1Cc1ccnc(N[C@@H]2C[C@@H]2F)c1 [Compound 240, 1-((2-(((1R,2S)-2-fluorocyclopropyl)amino)pyridin-4-yl)methyl)-5,5-dimethyl-3-(1′-(methylsulfonyl)spiro[cyclobutane-1,3′-indolin]-6′-yl)imidazolidine-2,4-dione]
≤ 500 nM	CC1C(=O)Nc2nccc(CN3C(=O)N(c4ccc(C5(C(F)(F)F)CC5)cc4)C(=O)C3(C)C)c21 (stereo not drawn) [Compound 31, 5,5-dimethyl-1-((3-methyl-2-oxo-2,3-dihydro-1H-pyrrolo[2,3-b]pyridin-4-yl)methyl)-3-(4-(1-(trifluoromethyl)cyclopropyl)phenyl) imidazolidine-2,4-dione]
